Experimental data as given in paper PMC4383003, “Transfer hydrogenation catalysis in cells as a new approach to anticancer drug design” (Nature Communications, 2015).

System: A2780 cells
Experiment: ROS determination by flow cytometry
Assay type: cell-based, human
Conditions: A2780, complex 2 and 2 mM sodium formate, 24 h
Method: Flow cytometry analysis of total induction of ROS in A2780 cells caused by exposure to complex 2 and sodium formate was carried out using the Total ROS detection kit (Enzo Life Sciences) according to the supplier’s instructions. Briefly, 1.0 × 10^6 A2780 cells per well were seeded in a six-well plate. […] After 24 h of drug exposure, supernatants were removed by suction and cells were washed and harvested. Staining was achieved by resuspending the cell pellets in buffer containing the green fluorescent reagent. Cells were analysed in a Becton Dickinson FACScan Flow Cytometer using Ex/Em: 490/525 nm for the oxidative stress detection. Data were processed using Flowjo software. The experiment included cells treated with pyocyanin for 30 min as positive control.

Cc1ccc(C(C)C)cc1.Cc1ccc(S(=O)(=O)[N-]CCN)cc1.[Cl-].[Ru+2] [Complex 2, [(p-cym)Ru(TsEn)Cl]]
levels of reactive oxygen species (ROS) in treated cells: comparable to those arising from treatment with N-acetyl-L-cysteine
